Measurements as given in patent publication US10829501B2 (BRISTOL-MYERS SQUIBB COMPANY, priority 2016, dated 2020).

Biological target: ROCK2 (Homo sapiens, UniProt O75116)
Experiment: ROCK2 kinase inhibition assay (LABCHIP 3000 Reader, FITC peptide substrate);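 also: rho kinase reaction read by separating phosphorylated from unphosphorylated peptide on chip, with inhibition of kinase activity computed per concentration across a dose-response series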
Conditions: not given

Chain of ROCK2 (O75116 whole entry, species assumed): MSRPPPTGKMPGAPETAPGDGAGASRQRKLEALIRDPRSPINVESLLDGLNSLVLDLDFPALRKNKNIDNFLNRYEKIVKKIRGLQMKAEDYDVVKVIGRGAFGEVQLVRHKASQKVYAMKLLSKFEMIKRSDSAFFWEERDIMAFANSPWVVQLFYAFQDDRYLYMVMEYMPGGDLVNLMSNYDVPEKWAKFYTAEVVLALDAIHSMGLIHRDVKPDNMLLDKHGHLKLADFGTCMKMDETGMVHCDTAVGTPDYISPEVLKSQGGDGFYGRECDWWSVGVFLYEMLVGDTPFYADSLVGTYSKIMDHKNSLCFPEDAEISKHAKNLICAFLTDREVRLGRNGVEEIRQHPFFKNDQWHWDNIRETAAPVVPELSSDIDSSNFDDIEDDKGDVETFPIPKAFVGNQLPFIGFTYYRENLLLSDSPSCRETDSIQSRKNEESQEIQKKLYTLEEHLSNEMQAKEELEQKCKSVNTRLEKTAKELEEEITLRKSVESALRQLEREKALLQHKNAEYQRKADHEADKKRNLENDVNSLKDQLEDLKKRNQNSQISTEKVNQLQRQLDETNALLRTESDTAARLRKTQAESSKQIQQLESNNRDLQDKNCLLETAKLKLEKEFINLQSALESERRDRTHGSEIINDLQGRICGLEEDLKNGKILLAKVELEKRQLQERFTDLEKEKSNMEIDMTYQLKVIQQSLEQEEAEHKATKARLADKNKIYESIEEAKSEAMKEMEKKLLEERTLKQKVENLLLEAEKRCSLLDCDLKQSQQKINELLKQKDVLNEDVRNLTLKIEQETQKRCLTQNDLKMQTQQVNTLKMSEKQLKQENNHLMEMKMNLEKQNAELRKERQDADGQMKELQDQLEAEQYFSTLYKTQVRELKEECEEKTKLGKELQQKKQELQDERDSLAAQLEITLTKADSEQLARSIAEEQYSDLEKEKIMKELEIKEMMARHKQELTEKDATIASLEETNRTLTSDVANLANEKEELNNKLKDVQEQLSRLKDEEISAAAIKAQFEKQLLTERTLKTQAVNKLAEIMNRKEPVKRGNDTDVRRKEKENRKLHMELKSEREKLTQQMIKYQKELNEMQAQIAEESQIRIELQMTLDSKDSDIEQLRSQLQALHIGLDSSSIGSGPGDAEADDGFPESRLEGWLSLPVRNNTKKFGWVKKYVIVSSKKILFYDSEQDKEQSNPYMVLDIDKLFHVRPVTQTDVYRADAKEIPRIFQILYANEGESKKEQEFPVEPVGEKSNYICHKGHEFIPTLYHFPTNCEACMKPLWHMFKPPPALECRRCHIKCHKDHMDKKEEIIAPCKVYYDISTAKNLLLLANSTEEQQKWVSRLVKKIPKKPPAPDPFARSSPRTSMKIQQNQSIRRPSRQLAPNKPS

Q: With Cc1ncc(-c2ccc3c(C(=O)NC4CC5(C4)CC(Oc4ncccc4C(N)=O)C5)nc(C(F)F)n3c2)s1 [Example 436, N-((aR)-6-((3-carbamoylpyridin-2-yl)oxy)spiro[3.3]heptan-2-yl)-3-(difluoromethyl)-6-(2-methylthiazol-5-yl)imidazo[1,5-a]pyridine-1-carboxamide] as the compound, how does the IC50 read?
A: < 5 nM

Q: Which IC50 does the source give for Cn1cc(-c2ccc3c(C(=O)NC4CC5(C4)CC(Oc4ncccc4C(N)=O)C5)nc(C(F)F)n3c2)c(C(F)(F)F)n1 [Example 438, N-((aR)-6-((3-carbamoylpyridin-2-yl)oxy)spiro[3.3]heptan-2-yl)-3-(difluoromethyl)-6-(1-methyl-3-(trifluoromethyl)-1H-pyrazol-4-yl)imidazo[1,5-a]pyridine-1-carboxamide] here?
A: 5 to 50 nM

Same assay, conditions: read-out: ROCK2 Activity (ROCK2 IC50); 5 μM ATP, 1.5 μM peptide substrate, pH 7.5

Q: With Cn1cc(-c2cc(C(=O)NC3CC4(C3)CC(Oc3ncccc3C(N)=O)C4)cc(C(F)(F)F)c2)cn1 [Example 428, 2-(((aR)-6-(3-(1-methyl-1H-pyrazol-4-yl)-5-(trifluoromethyl)benzamido)spiro[3.3]heptan-2-yl)oxy)nicotinamide] as the compound, how does the IC50 read?
A: < 5 nM

Q: How did the IC50 turn out when NC(=O)c1cccnc1OC1CC2(CC(NC(=O)c3nc(C(F)(F)F)n4cc(Br)ccc34)C2)C1 [Example 429, 6-bromo-N-((aR)-6-((3-carbamoylpyridin-2-yl)oxy)spiro[3.3]heptan-2-yl)-3-(trifluoromethyl)imidazo[1,5-a]pyridine-1-carboxamide] was run?
A: 5 to 50 nM

Q: For NC(=O)c1cccnc1OC1CC2(CC(NC(=O)c3nc(C(F)(F)F)n4ccccc34)C2)C1 [Example 430, N-((aR)-6-((3-carbamoylpyridin-2-yl)oxy)spiro[3.3]heptan-2-yl)-3-(trifluoromethyl)imidazo[1,5-a]pyridine-1-carboxamide], which IC50 is on record?
A: 5 to 50 nM

Q: For NC(=O)c1cccnc1OC1CC2(CC(NC(=O)c3nc(C(F)(F)F)n4cc(OCc5ccccc5)ccc34)C2)C1 [Example 431, 6-(benzyloxy)-N-((aR)-6-((3-carbamoylpyridin-2-yl)oxy)spiro[3.3]heptan-2-yl)-3-(trifluoromethyl)imidazo[1,5-a]pyridine-1-carboxamide], which IC50 is on record?
A: 5 to 50 nM

Q: For NC(=O)c1cccnc1OC1CC2(CC(NC(=O)c3nc(C(F)(F)F)n4cc(OS(=O)(=O)C(F)(F)F)ccc34)C2)C1 [Example 432, 1-(((aR)-6-((3-carbamoylpyridin-2-yl)oxy)spiro[3.3]heptan-2-yl)carbamoyl)-3-(trifluoromethyl)imidazo[1,5-a]pyridin-6-yl Trifluoromethanesulfonate], which IC50 is on record?
A: 5 to 50 nM

Q: For Cn1cc(-c2ccc3c(C(=O)NC4CC5(C4)CC(Oc4ncccc4C(N)=O)C5)nc(C(F)(F)F)n3c2)cn1 [Example 433, N-((aR)-6-((3-carbamoylpyridin-2-yl)oxy)spiro[3.3]heptan-2-yl)-6-(1-methyl-1H-pyrazol-4-yl)-3-(trifluoromethyl)imidazo[1,5-a]pyridine-1-carboxamide], which IC50 is on record?
A: < 5 nM

Q: For CC(C)(O)COc1ccc2c(C(=O)NC3CC4(C3)CC(Oc3ncccc3C(N)=O)C4)nc(C(F)(F)F)n2c1 [Example 434, N-((aR)-6-((3-carbamoylpyridin-2-yl)oxy)spiro[3.3]heptan-2-yl)-6-(2-hydroxy-2-methylpropoxy)-3-(trifluoromethyl)imidazo[1,5-a]pyridine-1-carboxamide], which IC50 is on record?
A: 5 to 50 nM

Q: How did the IC50 turn out when NC(=O)c1cccnc1OC1CC2(CC(NC(=O)c3nc(C(F)F)n4cc(OCc5ccccc5)ccc34)C2)C1 [Example 435, 6-(benzyloxy)-N-((aR)-6-((3-carbamoylpyridin-2-yl)oxy)spiro[3.3]heptan-2-yl)-3-(difluoromethyl)imidazo[1,5-a]pyridine-1-carboxamide] was run?
A: < 5 nM

Q: Which IC50 does the source give for Cn1cncc1-c1ccc2c(C(=O)NC3CC4(C3)CC(Oc3ncccc3C(N)=O)C4)nc(C(F)F)n2c1 [Example 437, N-((aR)-6-((3-carbamoylpyridin-2-yl)oxy)spiro[3.3]heptan-2-yl)-3-(difluoromethyl)-6-(1-methyl-1H-imidazol-5-yl)imidazo[1,5-a]pyridine-1-carboxamide] here?
A: 5 to 50 nM

Q: With Cn1cc(-c2ccc3c(C(=O)NC4CC5(C4)CC(Oc4ncccc4C(N)=O)C5)nc(C(F)F)n3c2)cn1 [Example 439, N-((aR)-6-((3-carbamoylpyridin-2-yl)oxy)spiro[3.3]heptan-2-yl)-3-(difluoromethyl)-6-(1-methyl-1H-pyrazol-4-yl)imidazo[1,5-a]pyridine-1-carboxamide] as the compound, how does the IC50 read?
A: < 5 nM

Q: How did the IC50 turn out when NC(=O)c1cccnc1OC1CC2(CC(NC(=O)c3nc(C(F)F)n4cc(N5CCOCC5)ccc34)C2)C1 [Example 440, N-((aR)-6-((3-carbamoylpyridin-2-yl)oxy)spiro[3.3]heptan-2-yl)-3-(difluoromethyl)-6-morpholinoimidazo[1,5-a]pyridine-1-carboxamide] was run?
A: < 5 nM

Q: CC(C)(O)CCOc1ccc2c(C(=O)NC3CC4(C3)CC(Oc3ncccc3C(N)=O)C4)nc(C(F)F)n2c1 [Example 441, N-((aR)-6-((3-carbamoylpyridin-2-yl)oxy)spiro[3.3]heptan-2-yl)-3-(difluoromethyl)-6-(3-hydroxy-3-methylbutoxy)imidazo[1,5-a]pyridine-1-carboxamide] was tested. Which IC50 did it give?
A: < 5 nM

Q: With CC(C)(O)CNc1ccc2c(C(=O)NC3CC4(C3)CC(Oc3ncccc3C(N)=O)C4)nc(C(F)F)n2c1 [Example 442, N-((aR)-6-((3-carbamoylpyridin-2-yl)oxy)spiro[3.3]heptan-2-yl)-3-(difluoromethyl)-6-((2-hydroxy-2-methylpropyl)amino)imidazo[1,5-a]pyridine-1-carboxamide] as the compound, how does the IC50 read?
A: 250 to 2500 nM

Q: Which IC50 does the source give for CC(C)(CN)Oc1ccc2c(C(=O)NC3CC4(C3)CC(Oc3ncccc3C(N)=O)C4)nc(C(F)F)n2c1 [Example 443, 6-((1-amino-2-methylpropan-2-yl)oxy)-N-((aR)-6-((3-carbamoylpyridin-2-yl)oxy)spiro[3.3]heptan-2-yl)-3-(difluoromethyl)imidazo[1,5-a]pyridine-1-carboxamide] here?
A: 250 to 2500 nM

Q: With C[C@@H]1CN(c2ccc3c(C(=O)NC4CC5(C4)CC(Oc4ncccc4C(N)=O)C5)nc(C(F)F)n3c2)C[C@H](C)O1 (stereo partly drawn) [Example 444, N-((aR)-6-((3-carbamoylpyridin-2-yl)oxy)spiro[3.3]heptan-2-yl)-3-(difluoromethyl)-6-((2S,6R)-2,6-dimethylmorpholino)imidazo[1,5-a]pyridine-1-carboxamide] as the compound, how does the IC50 read?
A: < 5 nM

Q: Cc1nn(C)cc1-c1ccc2c(C(=O)NC3CC4(C3)CC(Oc3ncccc3C(N)=O)C4)nc(C(F)F)n2c1 [Example 445, N-((aR)-6-((3-carbamoylpyridin-2-yl)oxy)spiro[3.3]heptan-2-yl)-3-(difluoromethyl)-6-(1,3-dimethyl-1H-pyrazol-4-yl)imidazo[1,5-a]pyridine-1-carboxamide] was tested. Which IC50 did it give?
A: < 5 nM

Q: With Cc1ncc(-c2cc(C(=O)NC3CC4(C3)CC(Oc3ncccc3C(N)=O)C4)cc(C(F)(F)F)c2)s1 [Example 446, 2-(((aR)-6-(3-(2-methylthiazol-5-yl)-5-(trifluoromethyl)benzamido)spiro[3.3]heptan-2-yl)oxy)nicotinamide] as the compound, how does the IC50 read?
A: < 5 nM

Q: With Cn1cc(-c2cc(C(=O)NC3CC4(C3)CC(Oc3ncccc3C(N)=O)C4)cc(C(F)(F)F)c2)c(C(F)(F)F)n1 [Example 447, 2-(((aR)-6-(3-(1-methyl-3-(trifluoromethyl)-1H-pyrazol-4-yl)-5-(trifluoromethyl)benzamido)spiro[3.3]heptan-2-yl)oxy)nicotinamide] as the compound, how does the IC50 read?
A: 5 to 50 nM

Q: Cc1nn(C)cc1-c1cc(C(=O)NC2CC3(C2)CC(Oc2ncccc2C(N)=O)C3)cc(C(F)(F)F)c1 [Example 448, 2-(((aR)-6-(3-(1,3-dimethyl-1H-pyrazol-4-yl)-5-(trifluoromethyl)benzamido)spiro[3.3]heptan-2-yl)oxy)nicotinamide] was tested. Which IC50 did it give?
A: < 5 nM

Q: Which IC50 does the source give for Cn1cncc1-c1cc(C(=O)NC2CC3(C2)CC(Oc2ncccc2C(N)=O)C3)cc(C(F)(F)F)c1 [Example 449, 2-(((aR)-6-(3-(1-methyl-1H-imidazol-5-yl)-5-(trifluoromethyl)benzamido)spiro[3.3]heptan-2-yl)oxy)nicotinamide] here?
A: 5 to 50 nM

Q: How did the IC50 turn out when CC1(O)CCN(c2cc(C(=O)NC3CC4(C3)CC(Oc3ncccc3C(N)=O)C4)cc(C(F)(F)F)c2)CC1 [Example 450, 2-(((aR)-6-(3-(4-hydroxy-4-methylpiperidin-1-yl)-5-(trifluoromethyl)benzamido)spiro[3.3]heptan-2-yl)oxy)nicotinamide] was run?
A: 5 to 50 nM

Q: With NC(=O)c1cccnc1OC1CC2(CC(NC(=O)c3nc(C(F)F)n4cc(N5CCOC(CCO)C5)ccc34)C2)C1 [Example 451, N-((aR)-6-((3-carbamoylpyridin-2-yl)oxy)spiro[3.3]heptan-2-yl)-3-(difluoromethyl)-6-(2-(2-hydroxyethyl)morpholino)imidazo[1,5-a]pyridine-1-carboxamide] as the compound, how does the IC50 read?
A: 5 to 50 nM

Q: With NC(=O)c1cccnc1OC1CC2(CC(NC(=O)c3cc(N4CC5CC4CO5)cc(C(F)(F)F)c3)C2)C1 [Example 452, 2-(((aR)-6-(3-(2-oxa-5-azabicyclo[2.2.1]heptan-5-yl)-5-(trifluoromethyl)benzamido)spiro[3.3]heptan-2-yl)oxy)nicotinamide] as the compound, how does the IC50 read?
A: 5 to 50 nM

Q: How did the IC50 turn out when CC(=O)N(C)Cc1ccc2c(C(=O)NC3CC4(C3)CC(Oc3ncccc3C(N)=O)C4)nc(C(F)F)n2c1 [Example 453, N-((aR)-6-((3-carbamoylpyridin-2-yl)oxy)spiro[3.3]heptan-2-yl)-3-(difluoromethyl)-6-((N-methylacetamido)methyl)imidazo[1,5-a]pyridine-1-carboxamide] was run?
A: 5 to 50 nM

Q: Which IC50 does the source give for Cc1c(-c2cc(C(=O)NC3CC4(C3)CC(Oc3ncccc3C(N)=O)C4)cc(C(F)(F)F)c2)cnn1C [Example 454, 2-(((aR)-6-(3-(1,5-dimethyl-1H-pyrazol-4-yl)-5-(trifluoromethyl)benzamido)spiro[3.3]heptan-2-yl)oxy)nicotinamide] here?
A: < 5 nM

Q: For NC(=O)c1cccnc1OC1CC2(CC(NC(=O)c3nc(C(F)F)n4cc(N5CCN[C@H](CO)C5)ccc34)C2)C1 (stereo partly drawn) [Example 455, N-((aR)-6-((3-carbamoylpyridin-2-yl)oxy)spiro[3.3]heptan-2-yl)-3-(difluoromethyl)-6-((S)-3-(hydroxymethyl)piperazin-1-yl)imidazo[1,5-a]pyridine-1-carboxamide], which IC50 is on record?
A: 5 to 50 nM
